Laboratory results as given in US12611443B2, “Methods and compositions related to therapeutic peptides for cancer therapy” (THE UNIVERSITY OF CHICAGO, priority 2018, dated 2026).
Entries after “also recorded” stand apart in the source; their conditions may differ.

Legend:
[1] = tested on: Human monocyte-derived macrophages (HMDMs); assay: Cell viability of HMDMs treated with purified ELANE or ECP; format: cell-based
Description: Primary human blood-derived cells.
In vitro cell viability assays. […] Luminescence was measured using a Victor X3 luminometer (PerkinElmer).

[2] = tested on: tumors (MDA-MB-231, A549, MEL888, M1, 4195, E0771, LLC1, B16F10); assay: Intra-tumoral treatment of tumor models (xenograft, PDX, syngeneic); format: in vivo, mice
Description: Tumor inoculation and treatment. MDA-MB-231 cells (2×10^6), A549 cells (2×10^6) with Matrix Type 3), or MEL888 cells (2×10^6 with Matrix Type 3) were injected into athymic nude mice (Charles River); M1 or 4195 cells (50,000) were injected into NOD.SCID mice (JAX); and E0771 cells (0.5×10^6), LLC1 cells (0.5×10^6), or B16F10 cells (1×10^6), were injected into C57BL/6 mice (JAX). For TNBC models (MDA-MB-231, E0771, M1, 4195), cells were injected into the 4th mammary fat pad of the right ventral side. For all other models (A549, LLC1, MEL888, B16F10), cells were injected into the flank. Once tumors reached ˜100 mm^3, ELANE or PMSF-ELANE (11.6 μg/100 μL), or neutrophil medias or HSA (50 μg/100 μL) were delivered IT once/day for 5 days. Tumor volume was assessed by calipers, and experiments were terminated when tumor volume in control mice reached >1000 mm^3.
Tumor immunohistochemistry. Tumors were fixed in 4% paraformaldehyde in PBS for 24 h, embedded in paraffin blocks, and sectioned (5 μm). Slides were stained with cCASP3 (9661) and cPARP (9625) antibodies from Cell Signaling Technology. Signals were developed using the VECTASTAIN ABC kit (Vector Laboratories) or fluorescently-labeled secondary antibodies (melanoma models). For the TUNEL assay, staining was performed with the DeadEnd™ colorimetric or fluorometric TUNEL systems (Promega). Cell nuclei were labeled with haematoxylin or Hoechst 33342 (ThermoFisher Scientific). Images were obtained with a Nikon Eclipse Ti2 microscope and analyzed using NIS-Elements software.

hCD95 = assay: Cleavage of recombinant human CD95 proteins/peptides by ELANE (SDS-PAGE, mass spectrometry); format: biochemical; settings: recombinant aa 1-173 and aa 212-335
Description: Identification of ELANE cleavage sites in CD95 by mass spectrometry. Recombinant human C-terminal CD95 (aa 212-335, MyBioSource, 10 μg) or recombinant N-terminal CD95 (aa 1-173, ThermoFisher Scientific, 10 μg) were digested with human ELANE (0.1 μg) for 2 h at 37° C., and reactions were stopped with SDS-PAGE loading buffer. Proteins were run on 20% SDS-PAGE gels, stained with Coomassie Blue (ThermoFisher Scientific), and bands were excised for mass spectrometric analyses. Proteins were extracted from excised bands.
Analysis of recombinant peptides by mass spectrometry. Recombinant peptides (10 μM) corresponding to aa 214-([…])-231 (SEQ ID NO:6) or 317-([…])-335 (SEQ ID NO:7) of human CD95 (ThermoFisher Scientific) were incubated with ELANE (0.1-0.2 μM) at 37° C. for 15-30 min. Reactions were stopped with 0.1% formic acid.

MDA-MB-231 cells = assay: Resistance to ELANE, repeated exposure in vitro; format: cell-based, human; settings: 7 exposures, ˜90% death/exposure
Description: To explore whether cancer cells could acquire resistance to ELANE, a combination of in vitro and in vivo approaches were used.

tumor immune cells = assay: Tumor immune cell analysis by flow cytometry; format: in vivo, mice
Description: Tumor immune cell analysis. […] Cells were labeled with various antibodies and analyzed by flow cytometry. Data were quantified by FlowJo v.10.4.1. Antibodies included: CD45 (47-0451), CD11b (25-0112), MHCII (11-5321), CD4 (17-0041), CD8 (12-0081), CD44 (25-0441) from ThermoFisher Scientific; CD3 (560527), CD62L (561917), from BD Biosciences, and Ly6G (127614) from BioLegend.
Assessment of potential side-effects. ELANE or PMSF-ELANE (11.6 μg/100 μL) were injected into the 4th mammary fat pad of the right ventral side pad of tumor-free C57BL/6 mice once/day for 5 days. One day after the last injection, mice were studied for potential side-effects. Body weight and spleen weight were measured. Apoptosis at the injection site was studied by isolating, fixing, and staining mammary adipose tissue for TUNEL, cCASP3, and cPARP using identical methods described for tumors above. Mammary adipose tissue immune cell populations at the injection site were determined by flow cytometry using identical methods described for tumors above. Liver function was assessed by measuring plasma ALT activity with the Alanine Transaminase Colorimetric Activity Assays Kit (Cayman Chemical).

Substance: ELANE: neutrophil elastase, a serine protease released by human PMNs
- cell viability, purified protein [1]: did not kill Human monocyte-derived macrophages (HMDMs)
- therapeutic benefit, dose finding ([2]; E0771 TNBC model, IT, 12 μg/day): good therapeutic benefit that was reproducible
- tumor growth ([2]; ELANE 12 μg/day IT, TNBC, lung cancer, melanoma models): attenuated tumor growth in all models tested
- staining for TUNEL, cPARP, and cCASP3 in tumors ([2]; ELANE IT): increase in staining for TUNEL, cPARP, and cCASP3 in all ELANE-treated tumors
- tumors with a crater ([2]; all immunocompetent models tested): ~40%
- craters in tumor-free mice and immunocompromised cancer models ([2]; mouse, in vivo): Craters were not observed
- cleavage of CD95 N- or C-terminal domain (hCD95): preferentially cleaved the C-terminal domain; also recorded: degrades the C-terminal domain of purified CD95
- acquired resistance after repeated exposure in vitro (MDA-MB-231 cells): did not confer resistance
- immune cells at injection site of tumor-free mice (tumor immune cells; mammary fat pads of tumor-free mice): Immune cell increases were not observed
- tumor immune cells (tumor immune cells; three immunocompetent models): increased the number of dendritic cells (DCs), CD8^+ T cells, and CD8^+ T effector cells (CD8^+Teff) in all three immunocompetent models tested
